Data reported in patent US20040110821A1, “GAL3 receptor antagonists for the treatment of affective disorders” (priority 2002, published 2004).

What was measured:
[1] = tested on: Male albino Sprague-Dawley rats; experiment: Rat Social Interaction Test (SIT); format: in vivo; conditions: for overall profile in the Social Interaction Test (conclusion in words): rat, in vivo
Method: Rats were allowed to acclimate to the animal care facility for 5 days and were housed singly for 5 days prior to testing. Animals were handled for 5 minutes per day. The design and procedure for the Social Interaction Test was carried out as previously described by Kennett, et al. (1997). On the test day, weight matched pairs of rats (±5%), unfamiliar to each other, were given identical treatments and returned to their home cages. Animals were randomly divided into 5 treatment groups, with 5 pairs per group, and were given one of the following i.p. treatments: Example 92 (10, 30 or 100 mg/kg), vehicle (1 ml/kg) or chlordiazepoxide (5 mg/kg). Dosing was 1 hour prior to testing. Rats were subsequently placed in a white perspex test box or arena (54×37×26 cm), whose floor was divided up into 24 equal squares, for 15 minutes. An air conditioner was used to generate background noise and to keep the room at approximately 74° F. All sessions were videotaped using a JVC camcorder (model GR-SZ1, Elmwood Park, N.J.) with either TDK (HG ultimate brand) or Sony 30 minute videocassettes. All sessions were conducted between 1:00-4:30 P.M. Active social interaction, defined as grooming, sniffing, biting, boxing, wrestling, following and crawling over or under, was scored using a stopwatch (Sportsline model no. 226, 1/100 sec. discriminability). The number of episodes of rearing (animal completely raises up its body on its hind limbs), grooming (licking, biting, scratching of body), and face washing (i.e. hands are moved repeatedly over face), and number of squares crossed were scored. Passive social interaction (animals are lying beside or on top of each other) was not scored. All behaviors were assessed later by an observer who was blind as to the treatment of each pair. At the end.of each test, the box was thoroughly wiped with moistened paper towels.
Male albino Sprague-Dawley rats (Taconic Farms, N.Y.) were housed in pairs under a 12 hr light dark cycle (lights on at 0700 hrs.) with free access to food and water.
Example 92 was dissolved in 100% DMSO (Sigma Chemical Co., St. Louis, Mo.). Chlordiazepoxide (purchased from Sigma Chemical Co., St. Louis, Mo.) was dissolved in double distilled water. The vehicle consisted of 50% DMSO (v/v). All drug solutions were made up 10 minutes prior to injection and the solutions were discarded.
Example 34 was dissolved in 5% lactic acid, v/v. The vehicle consisted of 100% dimethylacetamide (DMA) and this was used to make up all drug solutions. All drug solutions were made up fresh each day and any unused solutions were discarded at the end of the test day. The volume of drug solution administered was 1 ml/kg.
The social interaction data (time interacting, rearing and squares crossed) were subjected to a randomized, one-way ANOVA and post hoc tests conducted using the Student-Newman-Keuls test. The data were subjected to a test of normality (Shapiro-Wilk test). The data were analyzed using the GBSTAT program, version 6.5 (Dynamics Microsystems, Inc., Silver Spring, Md., 1997). All data are presented as means ±S.E.M.

[2] = molecular target: T1, human 5HT1A receptor (Homo sapiens, UniProt P08908); experiment: Radioligand binding at 5-HT1A receptor; conditions: read-out: h5HT1A Ki
T1 construct: expressed in transfected cells; host or cells: COS-7 cells, transient, vector pCEXV-3
Method: 5-HT1r Receptor: The cDNA corresponding to the 5-HT1A receptor open reading frames and variable non-coding 5′- and 3′-regions, was cloned into the eukaryotic expression vector pCEXV-3. These constructs were transfected transiently into COS-7 cells by the DEAE-dextran method (Cullen, 1987), and harvested after 72 hours. Radioligand binding assays were performed as described above for the 5-HT2A receptor, except that ^3H-8-OH-DPAT was used as the radioligand and nonspecific binding was determined by the addition of 10 μM mianserin.
Binding data were analyzed using nonlinear regression and statistical techniques available in the GraphPAD Prism package (San Diego, Calif.). Enzymatic assay data were derived from a standard curve of reference compound data.

T1 sequence (P08908 whole entry): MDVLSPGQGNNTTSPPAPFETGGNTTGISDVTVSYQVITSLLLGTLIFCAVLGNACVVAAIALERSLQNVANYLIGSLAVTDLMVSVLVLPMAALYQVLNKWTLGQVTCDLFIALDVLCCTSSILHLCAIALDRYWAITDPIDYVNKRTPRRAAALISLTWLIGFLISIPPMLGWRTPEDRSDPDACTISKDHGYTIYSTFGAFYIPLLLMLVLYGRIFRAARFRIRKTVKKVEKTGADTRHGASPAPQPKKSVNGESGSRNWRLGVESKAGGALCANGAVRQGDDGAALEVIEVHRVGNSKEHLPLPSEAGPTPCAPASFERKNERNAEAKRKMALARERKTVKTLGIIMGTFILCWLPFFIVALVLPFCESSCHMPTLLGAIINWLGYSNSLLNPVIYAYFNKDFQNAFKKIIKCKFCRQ

SMILES | overall profile in the Social Interaction Test (conclusion in words) [1] | Ki [2] | ataxia or sedation accompanying decreased locomotor activity ([1]; 100 mg/kg i.p.) | social interaction of familiar cage mates ([1]; familiar cage mates, another study (not reported)) | stereotypes or aggressive behaviors ([1]; i.p., Social Interaction Test)
Cc1ccc(Nc2cc(N3CCCCC3)nc(N3CCN(c4ncccc4C(F)(F)F)CC3)n2)cc1 [Example 34] | produces an anxiolytic-like action in the social interaction test | > 50 µM | – | – | –
O=C1C(=Nc2cccc(C(F)(F)F)c2)c2ccccc2N1c1ccccc1 [Example 92, 1-PHENYL-3-[[3-(TRIFLUOROMETHYL)PHENYL]IMINO]-1,3-DIHYDRO-2H-INDOL-2-ONE] | has the profile of an anxiolytic-like drug in the Social Interaction Test | > 50 µM | did not appear to be accompanied by ataxia or sedation | no significant increase in interaction | did not elicit stereotypes or produce aggressive behaviors
